Reference: patent publication US20250154169A1, “COMPOUNDS AND METHODS FOR MODULATING SPLICING” (REMIX THERAPEUTICS INC., priority 2021, published 2025)
“And” between values parts separate entries of the source, which are not always exact repeats. Equal values may be shown once.

Experiments:
MYB = test: Protein abundance, HiBit-assay system (Promega), MYB; type: cell-based; settings: Table 6; HiBiT-modified K562 cells, 24 hours
From the text: (§1) In some embodiments, a compound of Formula (I) or (II) or a pharmaceutically acceptable salt thereof, e.g., as described herein, modulates the expression of a target protein (e.g., HTT or MYB) in a reference cell or sample. In an embodiment, a compound of Formula (I) or (II) or a pharmaceutically acceptable salt thereof, e.g., as described herein, increases the expression of a target protein (e.g., HTT or MYB) in a reference cell or sample. In an embodiment, a compound of Formula (I) or (II) or a pharmaceutically acceptable salt thereof, e.g., as described herein, decreases the expression of a target protein (e.g., HTT or MYB) in a reference cell or sample. The effect of an exemplary compound of Formula (I) or (II) on protein abundance may be measured using a standard assay for measuring protein abundance, such as the HiBit-assay system (Promega). In this assay, percent response for each respective cell line may be as calculated at each compound concentration as follows: % response=100*(S−PC)/(NC−PC). For the normalized response at each concentration, a four-parameter logistical regression may be fit to the data and the response may be interpolated at the 50% value to determine a concentration for protein abundance at 50% (IC50) an untreated control. In an embodiment, a compound of Formula (I) or (II) or a pharmaceutically acceptable salt thereof, e.g., as described herein, has a protein abundance response less than 100 nM. In an embodiment, a compound of Formula (I) or (II) or a pharmaceutically acceptable salt thereof, e.g., as described herein, has a protein abundance response between 100-1000 nM. In an embodiment, a compound of Formula (I) or (II) or a pharmaceutically acceptable salt thereof, e.g., as described herein, has a protein abundance response greater than 1000 nM. In an embodiment, a compound of Formula (I) or (II) or a pharmaceutically acceptable salt thereof, e.g., as described herein, has a protein abundance response greater than 10 uM. In an embodiment, a compound of Formula (I) or (II) or a pharmaceutically acceptable salt thereof, e.g., as described herein, modulates the protein abundance of a target protein by about 1%, 5%, 10%, 15%, 20%, 25%, 30%, 35%, 40%, 45%, 50%, 55%, 60%, 65%, 70%, 75%, 80%, 85%, 90%, 95%, 99% or more, e.g., compared with a reference compound.

HTT = test: Protein abundance, HiBit-assay system (Promega), HTT; type: cell-based; settings: Table 6; HiBiT-modified K562 cells, 24 hours
From the text: as §1

HTT mRNA = test: Splicing RT-qPCR assay, HTT canonical (CJ) and alternative (AJ) junction mRNA; type: cell-based, human; settings: Homo sapiens, A673 or K562 cells, 24 hours compound treatment; for IC50: 24 h, read-out: HTT CJ (IC50, decrease in canonical junction mRNA); for AC50: read-out: HTT AJ (AC50, increase in alternative junction mRNA)
Method in brief: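 A673 or K562 cells were treated 24 h at 37 °C with an 11-point 3-fold compound dilution series (top 10 uM, DMSO ≤0.25%). Lysates went to one-step RT-qPCR measuring canonical (CJ) and alternative-exon (AJ) junction transcripts, normalized to GAPDH, GUSB or PPIA.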

| Structure (SMILES) | IC50 (MYB) | IC50 (HTT) | IC50 (HTT mRNA) | AC50 (HTT mRNA) |
| --- | --- | --- | --- | --- |
| Cc1cn2nc(NC(=O)c3ccc(C4CCNCC4)c4cc(C)oc34)cc(C)c2n1 [Compound 118] | < 100 nM | 100 to 1000 nM |  |  |
| Cc1cn2nc(NC(=O)c3ccc(C4CCNCC4)c4ccoc34)cc(C)c2n1 [Compound 119] | 1000 to 10000 nM | 1000 to 10000 nM | 1000 to 10000 nM | > 10000 nM |
| Cc1cn2cc(NC(=O)c3ccc(N4CCNCC4)c4nc(C)oc34)cc(F)c2n1 [Compound 140] | 1000 to 10000 nM | 1000 to 10000 nM |  |  |
| Cc1cn2cc(NC(=O)c3ccc(N4CCNCC4)c4oc(C)nc34)cc(F)c2n1 [Compound 141] | 100 to 1000 nM | 100 to 1000 nM | < 100 nM | < 100 nM |
| Cc1cn2cc(NC(=O)c3ccc(N4CCNCC4)c4cc(C)oc34)cc(F)c2n1 [Compound 142] | < 100 nM | 100 to 1000 nM | 1000 to 10000 nM | 1000 to 10000 nM |
| Cc1cn2cc(NC(=O)c3ccc(N4CCNCC4)c4cn(C)nc34)cc(F)c2n1 [Compound 143, N-{8-fluoro-2-methylimidazo[1,2-a]pyridin-6-yl}-2-methyl-4-(piperazin-1-yl) indazole-7-carboxamide] | < 100 nM | < 100 nM |  |  |
| Cc1cn2cc(NC(=O)c3ccc(C4CCNCC4)c4cc(C)oc34)cc(F)c2n1 [Compound 145] | < 100 nM | 1000 to 10000 nM | 1000 to 10000 nM | 1000 to 10000 nM |
| Cc1cn2nc(NC(=O)c3ccc(N4CCNCC4)c4cc(C)oc34)cc(C)c2n1 [Compound 148] | 1000 to 10000 nM | 1000 to 10000 nM | 1000 to 10000 nM | 1000 to 10000 nM |
| Cc1cn2cc(NC(=O)c3ccc(C4CCNCC4)c4ccoc34)cc(F)c2n1 [Compound 149] | < 100 nM | 1000 to 10000 nM | 1000 to 10000 nM | 1000 to 10000 nM |
| Cc1cn2cc(NC(=O)c3ccc(N4CCN(C)CC4)c4cc(C)oc34)cc(F)c2n1 [Compound 189] | 100 to 1000 nM | > 10000 nM | 1000 to 10000 nM | 1000 to 10000 nM |
| Cc1cn2cc(NC(=O)c3ccc(N4CCNC(C)C4)c4cc(C)oc34)cc(F)c2n1 (stereo not drawn) [Compound 190] | < 100 nM | 100 to 1000 nM | 100 to 1000 nM | 100 to 1000 nM |
| Cc1cn2cc(NC(=O)c3ccc(N4CCN(C)C(C)C4)c4cc(C)oc34)cc(F)c2n1 (stereo not drawn) [Compound 191] | < 100 nM and 100 to 1000 nM |  | 100 to 1000 nM | 1000 to 10000 nM |
| CCC1CN(c2ccc(C(=O)Nc3cc(F)c4nc(C)cn4c3)c3oc(C)cc23)CCN1 (stereo not drawn) [Compound 192] | 100 to 1000 nM | 1000 to 10000 nM | 1000 to 10000 nM | 1000 to 10000 nM |
| Cc1cn2cc(NC(=O)c3ccc(N4CCNC(C)(C)C4)c4cc(C)oc34)cc(F)c2n1 [Compound 193] | 100 to 1000 nM | 1000 to 10000 nM | 1000 to 10000 nM | 1000 to 10000 nM |
| Cc1cn2cc(NC(=O)c3ccc(N4CCNC5(CC5)C4)c4cc(C)oc34)cc(F)c2n1 [Compound 194] | 100 to 1000 nM | 1000 to 10000 nM |  |  |
